This note sets out measurements from EP0579833B1, “ETHANOLAMINE DERIVATIVES WITH ANTI-POLLAKIURIA ACTIVITY” (FUJISAWA PHARMACEUTICAL CO., LTD., priority 1991, dated 1992).

pIC50: −log10 of the molar value.

The test system of assay [1] is isolated rat distal colon. The assay can be described thus: Effect on isolated rat distal colon (spontaneous contractions, organ bath). The class given is tissue-based. The settings on record: spontaneous contractions of distal colon strip from male SD rats, Tyrode solution, 37°C, 0.5 g tension, observed over 30 minutes. On the procedure: Male SD rats (l80∼230 g) were used. Animals were fasted for 24 hours prior to experiment. Distal colon was removed immediately after sacrifice and placed in an organ bath containing 25 ml Tyrode solution aerating with 95% O2, 5% CO2 at 37°C. The strip was mounted under 0.5 g tension and spontaneous contractions were recorded isometrically. After the motility was of a uniform size, test compound was added to an organ bath and the contractions were observed over a 30 minutes period. Effect of test compound was calculated by comparing contractions before and after test compound.

Assay [2] concerns isolated non-pregnant rat uterus. The assay can be described thus: Effect on isolated non-pregnant rat uterus (spontaneous contractions, organ bath). Set-up: species or system tissue. The following applies: spontaneous contractions of uterine horn strip from estradiol-treated female SD rats, Locke solution, 37°C, 1 g tension, observed over 20 minutes. On the procedure:
Female SD rats (l50∼l80 g) were used. 48 and 24 hours prior to use, rats were given estradiol (ovahormon benzoat : Trademark, Teikoku Hormone Mfg. Co., Ltd.) subcutaneously at a dose of 40 µg/rat to induce oestrus. The animals were killed and uterine horns were removed. Each strip was placed in an organ bath containing 25 ml Locke solution aerating with 95% O2, 5% CO2 at 37°C under l g tension. Contractions were recorded isometrically. After the spontaneous contractions were of a uniform size, test compound was added to organ bath. The motility was observed over a 20 minutes period. Effect of test compound was calculated by comparing contractions before and after test compound.

In the case of “(1R,1'R,2'R)- and (1R,1'S,2'S)-1-(3-chlorophenyl)-2-[(7-ethoxycarbonylmethoxy-l-hydroxy-l,2,3,4-tetrahydro-2- naphthyl)amino]ethanol hydrochloride [Example 2]”, the pIC50 (usually the IC50 on a negative log10 scale, so that one unit is a factor of ten) was 8.72 in assay [1] and 6.29 in assay [2].
